Experimental data from patent publication US20240208972A1, “LRRK2 INHIBITORS AND USES THEREOF” (NEURON23, INC., priority 2022, published 2024).

How the values were obtained:
[1] = biological target: T1, wt human LRRK2, catalytic site (Homo sapiens, UniProt Q5S007); assay: TR-FRET LanthaScreen Tb Kinase Activity Assay, LRRK2 kinase inhibition; assay type: biochemical; details: 2 nM wt human LRRK2, 400 nM peptide, 38 μM ATP
T1 construct: wt human LRRK2, catalytic site, catalytic site (ThermoFisher/USA); purchased ThermoFisher
T1 sequence (Q5S007 1879-2138 limits assumed): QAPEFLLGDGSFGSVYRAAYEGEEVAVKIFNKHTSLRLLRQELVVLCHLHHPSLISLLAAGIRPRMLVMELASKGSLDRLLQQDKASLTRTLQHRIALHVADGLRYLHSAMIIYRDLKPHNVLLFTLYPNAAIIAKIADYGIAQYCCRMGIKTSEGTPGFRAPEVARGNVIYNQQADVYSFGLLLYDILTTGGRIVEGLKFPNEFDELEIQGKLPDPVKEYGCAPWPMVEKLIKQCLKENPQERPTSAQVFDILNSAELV
Experimental: The compounds disclosed herein were tested for their inhibitory effect on LRRK2 kinase according to the following procedures.
The protocol for basic TR-FRET LanthaScreen Tb Kinase Activity Assay inhibitor studies is as follows. LanthaScreen Kinase Activity Assays (ThermoFisher/USA) to evaluate inhibitors were performed by addition of 100 nL of test compound in the corresponding DMSO dilutions/5 L of kinase/fluorescein-ERM(LRRKtide) peptide mixture, Compound & kinase were pre-incubated for 15 minutes, then 5 μl of ATP into 384 well small volume plates. After incubation for 120 minutes at room temperature, the detection reagents containing Tb-anti-pLRRKtide antibody were added to monitor the phosphrylation level of peptide. Then, after 60 min minutes incubation at room temperature plates were read in Envision. Data analysis of emission ratios was according to the LanthaScreen Tb Kinase Activity Assay protocol.
Kinase and assay components were adjusted to final concentrations according to the kit protocol. For LRRK2: 2 nM wt human LRRK2, catalytic site, catalytic site (ThermoFisher/USA), 400 nM peptide, 38 μM ATP in 1× Kinase Buffer A.
Basic protocol for TR-FRET LanthaScreen Tb Kinase Activity Assay inhibitor studies involved two steps: Enzymatic step: Addition of 100 nl of test compound in corresponding DMSO dilutions, 5 μl of kinase/substrate mixture, 5 μl of ATP into 384 well small volume plates. Incubation for 120 minutes at room temperature.
Detection step: Addition of 10 μl EDTA & antibody, read plate after 60 minutes. Data analysis of emission ratios according to KinEASE assay protocol.
Kinase and assay components were adjusted to final concentrations according to the kit protocol.

[2] = Human hepatocyte stability, in vitro h-Hept CLpredict; assay type: in vitro ADME; details: cryopreserved hepatocytes, predicted hepatic clearance, cells without asterisk, read-out: hHep Cl
Experimental: The compounds disclosed herein were tested in vitro on human hepatocyte for in vitro h-Hept CLpredict according to the following procedures. • 1. Compound sock solutions were prepared by dissolving test compound and positive control in dimethyl sulfoxide (DMSO) at a concentration of 10 mM. Stock solutions were then diluted to 100 μM solutions by combining 198 μL of 50% acetonitrile/50% water with 2 μL of the 10 mM stock stock in separate conical tubes. • 2. Cryopreserved hepatocytes were prepared as follows: Incubation medium (William's E Medium supplemented with GlutaMAX) and hepatocyte thawing medium were placed in a 37° C. water bath and allowed to warm for at least 15 minutes prior to use. Cryopreserved hepatocytes were removed from storage, ensuring that vials remained at cryogenic temperatures until thawed. Cells were thawed by placing the vials in a 37° C. water bath and gently shaking the vials for 2 minutes. After thawing was completed, vials were sprayed with 70% ethanol and transferred to a biosafety cabinet. Hepatocytes were transferred into 50 mL conical tube containing thawing medium using wide-bore pipette tips. Tubes were placed into a centrifuge and spun at 100 g for 10 minutes. Then thawing medium was aspirated and hepatocytes were resuspended in enough incubation medium to yield−1.5×10^6 cells/mL. Cells were counted using acridine orange and propidium iodide (AO/PI) staining, and the viable cell density was determined. Cells were diluted with incubation medium to a working cell density of 0.5×10^6 viable cells/mL. • 3. To determine hepatocyte stability, 198 μL of hepatocytes were transferred into each well of a 96-well non-coated plate. Plates were placed in an incubator to allow the hepatocytes to warm for 10 minutes. • 4. The reaction was started by transferring 2 μL of the 100 μM test compound or positive control solution into respective wells of the 96-well non-coated plates. Plates were returned to the incubator until 25 μL aliquots of well contents were sampled at time points of 0, 15, 30, 60, 90 and 120 minutes. The aliquots were then mixed with 6 volumes (150 μL) of acetonitrile containing internal standard, IS (100 nM alprazolam, 200 nM caffeine and 100 nM tolbutamide) to terminate the reaction and vortexed for 5 minutes. After centrifuging the samples for 45 minutes at 3,220 g, aliquots of 100 μL of the supernatant were taken and diluted with 100 μL of ultra-pure water. The mixture was used for LC/MS/MS analysis. All incubations were performed in duplicate.
All calculations were carried out using Microsoft Excel. Peak area ratios (PAR) were determined from extracted ion chromatograms. The in vitro half-life (t1/2) of parent compound was determined by regression analysis of the percent parent disappearance vs. time curve as follows:
The in vitro half-life (in vitro t1/2) was determined from the slope value:
Conversion of the in vitro t1/2 (in minutes) into the in vitro intrinsic clearance (in vitro CLint, in μL/min/1×10^6 cells) was done using the following equation (mean of duplicate determinations): […]
The scaled-up intrinsic clearance (CLint, mL/min/kg), predicted hepatic clearance (CLH, mL/min/kg) and hepatic extraction ratio (ER) were calculated using the following equations:
CLint=(0.693/t1/2)*(1/(hepatocyte concentration (0.5*10^6 cells/mL))*scaling factors (Table (A)
• CLHept-predict=(QH*Scaled-up CLint*fub)/(QH+Scaled-up CLint*fub) • ER=CLH/QH • Where: • V=incubation volume (0.2 mL) • N=number of hepatocytes per well (0.1*10^6 cells) • QH=hepatic blood flow (mL/min/kg) (Table (A)
• fub=fraction of unbound drug in plasma, assumed to be 1 • Values used for calculation of the predicted hepatic clearance parameters data processing rules are outlined in the following tables (A) (B)

[3] = system: Caco-2 cells; assay: Caco-2 bidirectional permeability; assay type: in vitro ADME; details: for Caco-2 A2B (10^−6 cm/s): A to B; for Caco-2 A2B (10^−6 cm/s) / Caco-2 B2A (10^−6 cm/s): HBSS pH 7.4, 2 hours; for Caco-2 B2A (10^−6 cm/s): B to A; for Caco-2 ER: Efflux Ratio=Papp (BA)/Papp (AB)
Experimental: The compounds disclosed herein were tested in vitro on CaCo2 cell penetration according to the following procedures.
Test compounds were prepared in dimethyl sulfoxide (DMSO).
Caco-2 cells purchased from ATCC were seeded onto […] (PET) in 96-well Corning Insert plates at 1×10^5 cells/cm^2. The media were refreshed every 4 to 5 days until the 21st to 28th day for confluent cell monolayer formation.
Experiments were run in duplicate using a HBSS transport buffer containing 10 mM HEPES at pH 7.4. The test article TEST COMPOUND was tested bi-directionally at […] concentrations, the control compound digoxin was tested bi-directionally at 10 μM, and nadolol and metoprolol were tested at 2.0 μM in the A to B direction. Final DMSO concentrations were adjusted to less than 1%. The plates were incubated for 2 hours in a CO2 incubator at 37±1° C. with 5% CO2 at saturated humidity without shaking. Following incubation, samples were mixed with acetonitrile containing internal standard and centrifuged at 3200×g for 10 minutes. Then 200 μL of supernatant was taken from all samples. For TEST COMPOUND and digoxin, the supernatant was diluted with 200 μL of ultra-pure water and for nadolol and metoprolol, the supernatant was diluted with 600 μL of ultra-pure water. All samples were analyzed by LC-MS/MS. Concentrations of TEST COMPOUND and control compounds were determined in starting solutions, donor well solutions, and receiver well solutions using peak area ratios (PAR) of analyte to internal standard. After the transport assay, a lucifer yellow rejection assay was run to determine the Caco-2 cell monolayer integrity.
The apparent permeability (Papp), the % recovery and the efflux ratio were calculated as follows: • 1. Papp=(dCr/dt)×Vr/(A×C0) • 2. % Recovery=100×[(Vr×Cr)+(Vd×Cd)]/(Vd×C0) • 3. Efflux Ratio=Papp (BA)/Papp (AB) • Where: • dCr/dt is the slope of the cumulative concentration in the receiver compartment versus time (mM/s). • Vr and Vd is the volume in the receiver and donor compartments (0.075 mL on the apical side, 0.25 mL on the basolateral side), respectively. • A is the surface area of the cell monolayer (0.0804 cm^2). • C0 is the measured donor concentrations (μM) at the beginning of the experiment. • Cd and Cr are the final measured concentrations in the donor and receiver compartments, respectively.
The cell monolayer tight junction integrity assay was conducted after completion of the transport assay by adding Lucifer Yellow (LY) to the apical wells at 100 μM and incubating the cells for 30 minutes. Following incubation, tight junction integrity was assessed from LY concentrations in the basolateral compartment (receiver well) and the apical compartment (donor well) using fluorescence detection as follows: […]

Row | SMILES | IC50 [1] [nM] | CLhep predicted at 1 µM [2] [mL/min/kg] | Caco-2 A2B (10^−6 cm/s) [3] | Caco-2 B2A (10^−6 cm/s) [3] | Caco-2 ER [3]
1 | COc1nc(N2CCOCC2)cc2c1NC(c1c(F)cccc1F)=Nc1c(C)n[nH]c1-2 [Example 45, 4-[8-(2,6-difluorophenyl)-11-methoxy-5-methyl-3,4,7,9,12-pentazatricyclo[8.4.0.02,6]tetradeca-1(10),2(6),4,7,11,13-hexaen-13-yl]morpholine] | < 2 | 6.3 to 14.7 | H (H (High permeability)”: A2B (B2A)>5) | M (M (Moderate permeability)”: 1≤A2B (B2A)≤5) | N (N (Non-substrate)”: ER<2.5)
2 | Cc1n[nH]c2c1N=C(c1c(F)cccc1F)Nc1ccc(-c3ccn(C(F)F)n3)cc1-2 [Example 14, 9-[1-(difluoromethyl)pyrazol-3-yl]-5-(2,6-difluorophenyl)-3-methyl-1,6-dihydropyrazolo[4,3-d][1,3]benzodiazepine] | < 2 | > 14.7 | H (H (High permeability)”: A2B (B2A)>5) | H (H (High permeability)”: A2B (B2A)>5) | N (N (Non-substrate)”: ER<2.5)
3 | Cc1n[nH]c2c1N=C(c1c(F)cccc1F)Nc1c-2cc(N2C[C@H](C)O[C@@H](C)C2)nc1C [Example 39, (2S,6S)-4-[8-(2,6-difluorophenyl)-5,11-dimethyl-3,4,7,9,12-pentazatricyclo[8.4.0.02,6]tetradeca-1(10),2(6),4,7,11,13-hexaen-13-yl]-2,6-dimethyl-morpholine] | < 2 | 6.3 to 14.7 | H (H (High permeability)”: A2B (B2A)>5) | H (H (High permeability)”: A2B (B2A)>5) | N (N (Non-substrate)”: ER<2.5)
4 | CCOC[C@H]1CN(c2cc3c(c(C)n2)NC(c2c(F)cccc2F)=Nc2c(C)n[nH]c2-3)CCO1 [Example 51, (R)-4-(5-(2,6-difluorophenyl)-3,7-dimethyl-1,6-dihydropyrazolo[4,3-d]pyrido[4,3-f][1,3]diazepin-9-yl)-2-(ethoxymethyl)morpholine] | < 2 | 6.3 to 14.7 | M (M (Moderate permeability)”: 1≤A2B (B2A)≤5) | H (H (High permeability)”: A2B (B2A)>5) | N (N (Non-substrate)”: ER<2.5)
5 | Cc1n[nH]c2c1N=C(c1c(F)cccc1F)Nc1cnc(-n3ccc(C(F)(F)F)n3)cc1-2 [Example 15, 8-(2,6-difluorophenyl)-5-methyl-13-[3-(trifluoromethyl)pyrazol-1-yl]-3,4,7,9,12-pentazatricyclo[8.4.0.02,6]tetradeca-1(10),2(6),4,7,11,13-hexaene] | < 2 | 6.3 to 14.7 | M (M (Moderate permeability)”: 1≤A2B (B2A)≤5) | M (M (Moderate permeability)”: 1≤A2B (B2A)≤5) | N (N (Non-substrate)”: ER<2.5)
6 | Cc1n[nH]c2c1N=C(c1c(F)cccc1F)Nc1c-2cc(N2CCOCC2)nc1C(F)F [Example 44, 4-(7-(difluoromethyl)-5-(2,6-difluorophenyl)-3-methyl-1,6-dihydropyrazolo[4,3-d]pyrido[4,3-f][1,3]diazepin-9-yl)morpholine] | < 2 | 6.3 to 14.7 | H (H (High permeability)”: A2B (B2A)>5) | H (H (High permeability)”: A2B (B2A)>5) | N (N (Non-substrate)”: ER<2.5)

Further lines, results first:

Row | IC50 [1] [nM] | CLhep predicted at 1 µM [2] [mL/min/kg] | Caco-2 A2B (10^−6 cm/s) [3] | Caco-2 B2A (10^−6 cm/s) [3] | Caco-2 ER [3] | SMILES
7 | < 2 | < 6.3 | H (H (High permeability)”: A2B (B2A)>5) | H (H (High permeability)”: A2B (B2A)>5) | N (N (Non-substrate)”: ER<2.5) | COC[C@@H]1CN(c2cc3c(c(C)n2)NC(c2c(F)cccc2F)=Nc2c(C)n[nH]c2-3)CCO1 [Example 46, (2S)-4-[8-(2,6-difluorophenyl)-5,11-dimethyl-3,4,7,9,12-pentazatricyclo[8.4.0.02,6]tetradeca-1(10),2(6),4,7,11,13-hexaen-13-yl]-2-(methoxymethyl)morpholine]
8 | < 2 | 6.3 to 14.7 | H (H (High permeability)”: A2B (B2A)>5) | H (H (High permeability)”: A2B (B2A)>5) | N (N (Non-substrate)”: ER<2.5) | Cc1ccc(-c2ccc3c(c2)-c2[nH]nc(C)c2N=C(c2c(F)cccc2F)N3)cn1 [Example 53, 5-(2,6-difluorophenyl)-3-methyl-9-(6-methyl-3-pyridyl)-1,6-dihydropyrazolo[4,3-d][1,3]benzodiazepine]
